Data as given in patent EP2682005A1, “A dietary supplement composition” (Symrise AG, priority 2012, dated 2014).

Columns and labels:
Type in all cases: biochemical
[1] = Activity against free radicals, Method A (DPPH radical, optical density at 513 nm)
Experimental: (§1) The effectiveness of the test substances against free radicals was tested by various chemical and biochemical methods: Method A A first test was carried out using diphenylpicrylhydrazyl (DPPH°) which is a relatively stable radical that forms a purple-coloured solution. The optical density (DO) at 513 nm was determined. Method B Hydroxyl radicals were released from hydrogen peroxide in the presence of iron (II) ions and EDTA and were used to oxidize desoxyribose. The oxidation product forms a pink-coloured compound with thiobarbituric acid. Its concentration corresponds to the optical density at 532 nm. A test was conducted to determine whether less desoxyribose is oxidized, i.e. whether fewer free radicals are released, in the presence of the test products. […] Method D Xanthine oxidase is an enzyme which is released through oxidative stress and catabolizes the decomposition of the purine bases adenine and guanine into uronic acid and superoxide anions. The superoxide anions dismute into hydrogen peroxide and oxygen either spontaneously or in the presence of Superoxid Dismutase. The quantity of superoxide anion can be determined by NBT reduction via the optical density at 490 nm. A test was conducted to determine whether fewer superoxide anions are generated or more anions are destroyed in the presence of the test substances. The results are set out in Table 1 and represent the EC50 values in % (w/v).

[2] = Activity against free radicals, Method B (hydroxyl radicals from hydrogen peroxide with iron (II) ions and EDTA, desoxyribose oxidation); details: optical density at 532 nm
Experimental: as §1, with “The results are set out in Table 1 and represent the EC50 values in % (w/v).” left out

[3] = Activity against free radicals, Method C (desoxyribose oxidation in the absence of EDTA, forming inactive iron complexes); details: as Method B in the absence of EDTA
Experimental: as §1, with “The results are set out in Table 1 and represent the EC50 values in % (w/v).” left out

Xanthine oxidase = Xanthine oxidase (Homo sapiens, UniProt P47989); test: Activity against free radicals, Method D (xanthine oxidase, superoxide anion by NBT reduction); details: optical density at 490 nm
Experimental: as §1, with “substances.” for “substances. The results are set out in Table 1 and represent the EC50 values in % (w/v).”
The results are set out in Table 1 and represent the EC50 values in % (w/v).

Xanthine oxidase, sequence (P47989 whole entry, species assumed): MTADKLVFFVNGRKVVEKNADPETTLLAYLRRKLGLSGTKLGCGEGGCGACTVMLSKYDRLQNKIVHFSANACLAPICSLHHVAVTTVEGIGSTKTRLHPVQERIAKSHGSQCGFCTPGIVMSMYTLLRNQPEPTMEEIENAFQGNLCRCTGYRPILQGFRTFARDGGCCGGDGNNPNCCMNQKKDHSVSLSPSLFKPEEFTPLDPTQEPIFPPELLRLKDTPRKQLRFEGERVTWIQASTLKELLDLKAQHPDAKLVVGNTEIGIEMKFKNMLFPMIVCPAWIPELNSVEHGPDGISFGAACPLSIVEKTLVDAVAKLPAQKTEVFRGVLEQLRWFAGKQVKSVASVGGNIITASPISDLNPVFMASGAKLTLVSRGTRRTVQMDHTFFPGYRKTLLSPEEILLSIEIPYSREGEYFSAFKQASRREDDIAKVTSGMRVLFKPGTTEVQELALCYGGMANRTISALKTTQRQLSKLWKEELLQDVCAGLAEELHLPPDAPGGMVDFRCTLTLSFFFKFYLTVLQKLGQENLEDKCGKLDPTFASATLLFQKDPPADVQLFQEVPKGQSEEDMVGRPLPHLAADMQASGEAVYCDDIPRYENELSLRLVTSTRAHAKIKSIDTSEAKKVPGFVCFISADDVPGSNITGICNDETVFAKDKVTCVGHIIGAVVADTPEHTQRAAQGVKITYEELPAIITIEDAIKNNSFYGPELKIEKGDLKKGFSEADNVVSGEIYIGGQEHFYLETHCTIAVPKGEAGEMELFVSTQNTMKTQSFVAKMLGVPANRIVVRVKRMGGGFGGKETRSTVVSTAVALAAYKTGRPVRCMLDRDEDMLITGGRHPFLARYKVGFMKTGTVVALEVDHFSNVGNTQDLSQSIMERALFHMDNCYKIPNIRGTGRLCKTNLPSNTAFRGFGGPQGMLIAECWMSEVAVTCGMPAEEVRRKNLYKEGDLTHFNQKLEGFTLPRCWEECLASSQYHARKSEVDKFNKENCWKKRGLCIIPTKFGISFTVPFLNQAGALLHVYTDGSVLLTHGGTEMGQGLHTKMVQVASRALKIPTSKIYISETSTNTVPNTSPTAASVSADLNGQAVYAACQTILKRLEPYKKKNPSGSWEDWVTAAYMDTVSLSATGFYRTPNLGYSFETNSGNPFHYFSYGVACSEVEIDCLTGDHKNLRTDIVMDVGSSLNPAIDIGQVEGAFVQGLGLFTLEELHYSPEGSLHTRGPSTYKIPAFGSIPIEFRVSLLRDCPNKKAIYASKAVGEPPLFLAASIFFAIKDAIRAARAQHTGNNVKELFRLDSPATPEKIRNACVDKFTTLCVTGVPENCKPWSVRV

Compound | EC50, Method A [1] | EC50, Method B [2] | EC50, Method C [3] | EC50, Method D (Xanthine oxidase)
O=C1O[C@H]([C@@H](O)CO)C(O)=C1O [Ascorbic acid] | 0.0013 % (w/v) | 0.26 % (w/v) | 0.9 % (w/v) | 0.59 % (w/v)
Butylhydroxytoluol | 0.0500 % (w/v) | – | – | No effect
Tocopherol | 0.0067 % (w/v) | – | – | No effect
